Assay results as given in the supplement of paper PMC10307832.

Tests used:
Test in all cases: relative viability (nuclei count vs DMSO), 5 days (fraction); higher = more cells survive
Wnt-C59 + Palbociclib = compound: CC1=NC=CC(=C1)C2=CC=C(C=C2)CC(=O)NC3=CC=C(C=C3)C4=CN=CC=C4 [Wnt-C59] + CC(=O)c1c(C)c2cnc(Nc3ccc(N4CCNCC4)cn3)nc2n(C2CCCC2)c1=O [Palbociclib] (partner 0.5 µM)
In short: (§1)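 Lung cancer cell lines in 1536-well plates got either a single drug or a fixed anchor-drug dose together with five library-drug doses (not always all listed) in √10 steps, by pin tool, on the day after seeding. Nuclei were counted after 5 days, and relative viability is the treated-to-vehicle ratio of nuclei counts. Values are medians of duplicate plates.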

Wnt-C59 + Dasatinib = compound: CC1=NC=CC(=C1)C2=CC=C(C=C2)CC(=O)NC3=CC=C(C=C3)C4=CN=CC=C4 [Wnt-C59] + Cc1nc(Nc2ncc(C(=O)Nc3c(C)cccc3Cl)s2)cc(N2CCN(CCO)CC2)n1 [Dasatinib] (partner 0.075 µM)
In short: as §1

Lapatinib + OSI-027 = compound: CS(=O)(=O)CCNCc1ccc(-c2ccc3ncnc(Nc4ccc(OCc5cccc(F)c5)c(Cl)c4)c3c2)o1 [Lapatinib] + COc1cccc2cc(-c3nc([C@H]4CC[C@H](C(=O)O)CC4)n4ncnc(N)c34)[nH]c12 [OSI-027] (partner 0.5 µM)
In short: as §1

Lapatinib + Pemetrexed = compound: CS(=O)(=O)CCNCc1ccc(-c2ccc3ncnc(Nc4ccc(OCc5cccc(F)c5)c(Cl)c4)c3c2)o1 [Lapatinib] + Nc1nc2[nH]cc(CCc3ccc(C(=O)N[C@@H](CCC(=O)O)C(=O)O)cc3)c2c(=O)[nH]1 [Pemetrexed] (partner 0.2 µM)
In short: as §1

Cell Line | relative viability (Wnt-C59 + Palbociclib; first compound 0.001 µM) | relative viability (Wnt-C59 + Palbociclib; first compound 0.01 µM) | relative viability (Wnt-C59 + Palbociclib; first compound 0.03162 µM) | relative viability (Wnt-C59 + Palbociclib; first compound 0.1 µM) | relative viability (Wnt-C59 + Dasatinib; first compound 0.001 µM) | relative viability (Wnt-C59 + Dasatinib; first compound 0.01 µM) | relative viability (Wnt-C59 + Dasatinib; first compound 0.03162 µM) | relative viability (Wnt-C59 + Dasatinib; first compound 0.1 µM) | relative viability (Lapatinib + OSI-027; first compound 0.06325 µM) | relative viability (Lapatinib + OSI-027; first compound 0.2 µM) | relative viability (Lapatinib + OSI-027; first compound 0.6325 µM) | relative viability (Lapatinib + OSI-027; first compound 2 µM) | relative viability (Lapatinib + Pemetrexed; first compound 0.02 µM) | relative viability (Lapatinib + Pemetrexed; first compound 0.06325 µM) | relative viability (Lapatinib + Pemetrexed; first compound 0.2 µM) | relative viability (Lapatinib + Pemetrexed; first compound 0.6325 µM) | relative viability (Lapatinib + Pemetrexed; first compound 2 µM) | relative viability (Lapatinib + OSI-027; first compound 0.02 µM)
NCI-H2087 | 0.228 | 0.212 | 0.245 | 0.23 | 0.733 | 0.868 | 0.943 | 0.806 | 0.259 | 0.547 | 0.527 | 0.489 | 0.646 | 0.636 | 0.599 | 0.616 | 0.513 | 
NCI-H441 | 0.265 | 0.206 | 0.247 | 0.237 | 0.56 | 0.637 | 0.615 | 0.298 | 0.34 | 0.53 | 0.559 | 0.617 | 0.305 |  | 0.248 | 0.231 | 0.248 | 
NCI-H1755 | 0.454 | 0.447 | 0.438 | 0.416 | 0.429 | 0.405 | 0.436 | 0.41 | 0.567 | 0.653 | 0.696 | 0.697 | 0.423 | 0.405 | 0.49 | 0.451 | 0.439 | 0.423
EKVX | 0.389 |  | 0.327 | 0.179 | 0.575 | 0.511 | 0.527 | 0.451 | 0.502 | 0.575 | 0.58 | 0.325 |  | 0.361 | 0.344 | 0.274 | 0.355 | 0.594
A-427 | 0.55 | 0.513 | 0.509 | 0.562 | 0.71 | 0.682 | 0.768 | 0.798 | 0.359 | 0.516 | 0.541 | 0.417 | 0.928 | 0.949 | 0.946 | 1.06 | 0.963 | 
NCI-H1993 | 0.694 | 0.648 | 0.663 | 0.602 | 0.601 |  | 0.631 | 0.631 |  | 0.593 | 0.586 | 0.652 | 0.595 |  | 0.578 | 0.607 | 0.543 | 0.557
NCI-H1651 | 0.526 | 0.499 | 0.452 | 0.479 | 0.385 | 0.421 | 0.405 | 0.447 | 0.454 | 0.622 | 0.648 | 0.519 | 0.48 | 0.553 | 0.553 | 0.6 | 0.657 | 0.648
LXF-289 | 0.624 | 0.551 | 0.602 | 0.606 | 0.251 | 0.25 | 0.231 | 0.221 | 0.477 | 0.796 | 0.714 | 0.723 | 0.891 | 0.901 | 0.884 | 0.844 | 0.768 | 0.16
NCI-H23 | 0.51 | 0.508 | 0.521 | 0.474 | 0.885 | 0.734 | 0.829 | 0.698 |  | 0.51 | 0.639 | 0.504 |  |  | 0.782 | 0.58 | 0.529 | 
LU99A | 0.451 | 0.372 | 0.446 | 0.417 | 0.55 | 0.506 | 0.501 | 0.538 | 0.244 | 0.297 | 0.293 | 0.284 | 0.203 | 0.161 | 0.223 | 0.178 | 0.182 | 0.283
NCI-H1793 | 0.296 | 0.259 | 0.355 | 0.321 | 0.431 |  | 0.468 | 0.355 | 0.143 | 0.235 | 0.167 | 0.16 |  | 0.602 | 0.889 | 0.658 | 0.535 | 
NCI-H2085 | 0.459 | 0.425 | 0.477 | 0.471 | 0.282 | 0.236 | 0.269 | 0.249 | 0.536 | 0.61 | 0.584 | 0.269 | 0.743 | 0.806 | 0.911 | 0.847 | 0.605 | 
NCI-H2126 | 0.378 | 0.36 | 0.35 | 0.36 | 0.658 | 0.592 | 0.647 | 0.61 |  | 0.644 | 0.688 | 0.557 | 0.379 | 0.484 | 0.655 | 0.672 | 0.607 | 
LCLC-103H | 0.462 | 0.509 | 0.487 | 0.472 | 0.509 | 0.471 | 0.493 | 0.516 | 0.372 | 0.429 | 0.417 | 0.436 | 0.558 | 0.437 | 0.47 | 0.494 | 0.425 | 0.409
NCI-H2347 | 0.437 | 0.445 | 0.484 | 0.417 | 0.35 | 0.295 | 0.327 | 0.306 | 0.266 | 0.462 | 0.44 | 0.366 |  | 0.421 | 0.417 | 0.436 | 0.504 | 
ABC-1 | 0.621 | 0.693 | 1.03 | 0.923 | 0.509 | 0.605 | 0.506 | 0.592 | 0.321 | 0.706 | 0.702 | 0.477 |  |  |  |  |  | 0.532
HCC-44 | 0.982 | 0.977 | 1.04 | 1 |  |  |  |  | 0.341 | 0.509 | 0.421 | 0.473 | 0.681 | 0.653 | 0.651 | 0.614 | 0.685 | 
NCI-H727 | 0.607 | 0.678 | 0.627 | 0.733 | 0.298 |  | 0.363 | 0.388 |  | 0.557 | 0.467 | 0.499 |  |  |  |  |  | 0.529
NCI-H596 |  |  |  |  | 0.609 | 0.477 | 0.554 | 0.611 | 0.52 | 0.566 | 0.671 | 0.416 |  | 0.505 | 0.531 | 0.504 | 0.494 | 
NCI-H1648 | 0.288 | 0.241 | 0.259 | 0.23 |  |  |  |  | 0.306 | 0.289 | 0.288 | 0.268 |  | 0.62 | 0.789 | 0.636 | 0.64 | 0.266
